Bridge positions count the residues as written; N and C are the ends. Peptide text beside a SMILES is read from it.
Legend:
[1] = target: T1, KLK5 (Homo sapiens, UniProt Q9Y337); experiment: Protease activity assay: inhibition of recombinant KLK5 (Boc-VPR-AMC substrate); type: biochemical; conditions: ratio of IC50 values
T1 construct: purchased R&D Systems 1108-SE
T1 sequence (Q9Y337 23-293): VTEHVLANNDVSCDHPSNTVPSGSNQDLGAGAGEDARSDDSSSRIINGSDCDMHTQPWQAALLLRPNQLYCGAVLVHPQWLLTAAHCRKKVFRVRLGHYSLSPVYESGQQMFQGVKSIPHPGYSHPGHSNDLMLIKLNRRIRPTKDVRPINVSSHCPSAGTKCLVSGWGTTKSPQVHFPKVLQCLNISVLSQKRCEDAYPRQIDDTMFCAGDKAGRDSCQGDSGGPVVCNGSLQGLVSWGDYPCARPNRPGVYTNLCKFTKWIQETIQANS
Method: Inhibitory activity against KLK5 was evaluated using the fluorogenic substrate Boc-VPR-AMC for KLK5 (Table ). […] The P1–P1′ reactive site (Arg5 to Ser6) is critical for inhibitor binding, with the P1′ position contributing up to 50% of the total association energy. , The conserved serine at P1′ in Bowman-Birk inhibitors (BBIs) is essential for function. […] Preservation of serine in the P1′ position restored inhibitory activity seen in 5 and 6. Preserving the native serine restored efficacy to the nanomolar range (5: 31 ± 7 nM; 6: 114 ± 11 nM).
Methods for biological experiment
SFTI analogues were created by individual amino acid substitutions in PYMOL (Python Molecular Graphics System) using the existing solution NMR structure of native SFTI - 1 (1JBL) found in the RCSB (Research Collaboratory for Structural Bioinformatics) database. Residues of 2 were mutated as follows: L5R, I10H, and F12W with conserved SFTI-1 backbone structure. Other SFTI based analogues were further modified using PYMOL. Currently, there are no SFTI-1 and Kallikrein 5 co-crystal structures found in the RCSB database. Superimposing the existing crystal structure of SFTI-1 and Trypsin complex (4XOJ) with Kallikrein 5 crystal structure (2PSX) was performed with PYMOL. Ab-initio docking between KLK5 and 2 were performed with HADDOCK 2.4 1, 2, with binding active site parameter set to Arg2, Cys3, Thr4, Arg5, Ser6 for 2 and Ser195, His57, and Asp102 for KLK5 catalytic triad. PRODIGY 3-5, set at 25 °C, was used to predict dissociation constant and binding interactions of docked clusters. Structural visualization and alignment were performed with PYMOL 6, and comparative sequence analysis was performed with MEGA11 7.
A fluorescence spectrometer using SpectraMax® i3x plate reader (Molecular Devices, United States) was used to measure the relative fluorescence unit (RFU) on a 96-well black microplate (Grenier Bio-one, cat no. 655074). The wavelengths were set to 360/460 nm (excitation/emission) for the substrate Boc-VPR-AMC (Bachem AG, cat no. 4003460) and 320/405nm for the substrate Mca-RPKPVE-Nval-WRK(Dnp)-NH2 Fluorogenic MMP Substrate (R&D Systems Biotechne, cat no.ES002). The Boc-VPR-AMC stock solution was prepared by dissolving the solid form in dimethyl sulfoxide to 100 mM. Mca-RPKPVE-Nval-WRK(Dnp)-NH2 fluorogenic MMP Substrate is supplied as stock solution at 10.0 mg/mL in dimethyl sulfoxide. Boc-VPR-AMC was used as a substrate for KLK5, 8 and 14. Mca-RPKPVE-Nval-WRK(Dnp)-NH2 was used as a substrate for KLK7. The ligand-only solution serves as a negative control (minimum RFU, 100% inhibition), and enzyme-only was served as positive (maximum RFU, 0% inhibition). The activities of proteases were measured and readout against the standard curve made in serial dilutions of tested recombinant KLKs, ranging from 0nM to 60nM. Each assay was done in triplicates and repeated at least for three times […]
Assessment of analogue mediated inhibition of KLK5, KLK7, KLK8, and KLK14 […]
Recombinant KLK5 (R&D Systems, cat no. 1108-SE) was diluted to a final concentration of 10 nM in 1X PBS (pH 8.0). KLK5 was pre -incubated on ice for 1 hour with serial dilutions of SFTI-derived analogues to assess inhibitory activity. After incubation, 20 µL of each mixture was transferred to we lls of a 96-well microplate in triplicates. The enzymatic reaction was initiated by adding 100 µL of Boc -VPR-AMC substrate (final concentration 100 µM) to each well. Fluorescence (RFU) was measured using a SpectraMax® i3x plate reader with chamber temperature maintained at 37°C. Readings were started at 0 minutes (baseline) and another […]
Recombinant KLK7 (R&D Systems , cat no. 2624-SE) and KLK14 (R&D Systems, cat no. 2664-SE) were activated by adding 1 mM CaCl ₂ 0.05% v/v Brij-35 (Sigma, cat no. […]
incubated at 37°C for 1 hour. Reactions were stopped by adding EDTA to a final concentration of 50 mM (Sigma, cat no. EDS-100G) KLK8 (catalytic domain only; R&D Systems, cat no. 2025-SE-010) was activated separately with 11 nM lysyl […]

[2] = tested on: NS keratinocytes; experiment: Transepithelial electrical resistance (TEER) assay, NS keratinocytes; type: cell-based, human; conditions: 1 μM, 9 days, p < 0.05, n = 18
From the text: (§1) KLK5 regulates epidermal barrier homeostasis by targeting corneodesmosomal proteins involved in cell–cell adhesion, including desmoglein-1 (DSG1), desmocollin-1 (DSC1), and corneodesmosin (CDSN). Dysregulated KLK5 activity can accelerate the degradation of these adhesion molecules, leading to impaired corneocyte cohesion and disruption of the epithelial barrier. To assess whether control of KLK5 activity by lead 7 could improve barrier integrity, the resistance of epidermal sheets generated using NS and healthy donor keratinocytes was measured using a transepithelial electrical resistance (TEER) assay. Keratinocytes from NS keratinocyte and three healthy donors were seeded in 6-well plates and cultured in the medium with 1 μM of lead 7 or without. The medium was replaced every 3 days with fresh lead 7 added in the treated groups. TEER measurements were performed every other day, and cultures were maintained until TEER values reached a plateau (9 days).
(§2) Transepithelial Electrical Resistance (TEER) assay […]
(§3) Transepithelial electrical resistance (TEER) values in ohms (Ω) were measured using the EVOM™ Manual Resistance Meter (World Precision Instruments, cat no. EVM-MT-03-02). Background resistance was first recorded using inserts containing only medium (without cells). […]
(§4) One-way ANOVA was used for KLK5 activity study. […] TEER study data was analysed using the Wilcoxon […]

[3] = tested on: healthy donor keratinocytes; experiment: Transepithelial electrical resistance (TEER) assay, healthy donor keratinocytes; type: cell-based, human; conditions: 1 μM, 9 days, p > 0.05, n = 54
From the text: as §1, §2, §3, §4

C[C@@H](O)[C@@H]1NC(=O)[C@@H]2CSSC[C@H](NC(=O)[C@H](CCC(=O)O)NC(=O)[C@@H]3CCCN3C(=O)[C@@H]3CCCN3C(=O)[C@H](CC(N)=O)NC(=O)[C@H](CO)NC(=O)[C@H](CCCNC(=N)N)NC1=O)C(=O)N[C@@H](Cc1c[nH]c3ccccc13)C(=O)N1CCC[C@H]1C(=O)N[C@@H](CC(N)=O)C(=O)NCC(=O)N[C@@H](Cc1ccccc1)C(=O)N2 [compound 7] (cyclo(GFCTRSNPPECWPN); disulfide 3-11)
increase in KLK5 inhibitory potency (IC50) compared to 2 [1]: 4 fold | increase in KLK5 inhibitory potency (IC50) relative to 1 [1]: 16 fold | TEER, treated versus untreated NS keratinocytes [2]: obvious increase in TEER values | TEER, treated versus untreated healthy donor keratinocytes [3]: no differences
